Results as given in US20220372585A1, “Sensors for Aromatic Compounds and Methods of Making and Using Same” (Washington University, priority 2021, published 2022).
Numbering of substitutions follows the chain as printed. Where “and” joins values, the source holds several entries; their conditions need not be identical. Equal values may be shown once. Entries after “also recorded” stand apart in the source; their conditions may differ.

Key:
[1] = target: T1, WT TrpR (Escherichia coli, UniProt P0A881); assay: WT TrpR system, repression of GFP expression; format: cell-based, E. coli
T1 construct: trpR (WT); expressed in transfected cells; host or cells: E. coli Nissle 1917 (EcN), genomic trpR knocked out; plasmid pMBA035 (P17-trpR)
Excerpt: Among the various aspects of the present disclosure is the provision of systems and methods for detecting aromatic compounds. An aspect of the present disclosure provides for a method of protein engineering (e.g., a regulator protein) comprising: mutagenizing specific amino acids in and around a ligand-binding site of a protein, wherein the mutagenizing enables changes in ligand-protein binding specificity while maintaining protein-DNA interaction and thus downstream gene expression control; and/or linking ligand-protein binding to output response. An aspect of the present disclosure provides for an engineered molecular sensor. […] In some embodiments, the engineered regulator protein or the ligand-protein binding site or a sequence encoding the engineered regulator protein or the ligand-protein binding site of the engineered regulator protein is at least about 80% identical to a WT regulator protein or a WT regulator ligand-protein binding site; or a sequence encoding the engineered regulator protein or ligand binding site thereof is at least about 80% identical to a sequence encoding the WT regulator protein or the WT regulator ligand-protein binding site; or functional fragment thereof, the engineered regulator protein having ligand binding activity. In some embodiments, the engineered molecular sensor is optionally genomically integrated into a microorganism, optionally selected from a probiotic or is a purified cell-free sensor. In some embodiments, the engineered regulator protein or enzyme is an engineered TrpR, TyrR, TynA, or FeaR protein. […] In some embodiments, the engineered regulator protein is an engineered TrpR and is a tryptophan (Trp)-, 5-hydroxytryptophan (5-HTP)-, or tryptamine (Trpta)-specific sensor. In some embodiments, the engineered regulator protein or enzyme is an engineered TrpR, TyrR, TynA, or FeaR, and/or wherein the engineered TrpR, TyrR, TynA, or FeaR comprises at least one mutation to a ligand-protein binding site having specific amino acid binding activity. […]

[2] = target: T2, TrpR variant OD (Escherichia coli, UniProt P0A881, A80L/G78C/I79C/K72S/T83R); assay: TrpR OD variant with synthetic Ptrp promoter, repression of GFP expression; format: cell-based, E. coli
T2 construct: trpR (OD); expressed in transfected cells; host or cells: E. coli Nissle 1917 (EcN), genomic trpR knocked out; plasmid pMBA103 (P17-trpR(OD))
Excerpt: (§1) Among the various aspects of the present disclosure is the provision of systems and methods for detecting aromatic compounds. An aspect of the present disclosure provides for a method of protein engineering (e.g., a regulator protein) comprising: mutagenizing specific amino acids in and around a ligand-binding site of a protein, wherein the mutagenizing enables changes in ligand-protein binding specificity while maintaining protein-DNA interaction and thus downstream gene expression control; and/or linking ligand-protein binding to output response. An aspect of the present disclosure provides for an engineered molecular sensor. […] In some embodiments, the engineered regulator protein or the ligand-protein binding site or a sequence encoding the engineered regulator protein or the ligand-protein binding site of the engineered regulator protein is at least about 80% identical to a WT regulator protein or a WT regulator ligand-protein binding site; or a sequence encoding the engineered regulator protein or ligand binding site thereof is at least about 80% identical to a sequence encoding the WT regulator protein or the WT regulator ligand-protein binding site; or functional fragment thereof, the engineered regulator protein having ligand binding activity. […]

[3] = target: T3, TrpR variant O1 (Escherichia coli, UniProt P0A881, A80R/G78N/I79W/K72S/T83K); assay: TrpR O1 variant with synthetic Ptrp promoter, repression of GFP expression; format: cell-based, E. coli
T3 construct: trpR (O1); expressed in transfected cells; host or cells: E. coli Nissle 1917 (EcN), genomic trpR knocked out; plasmid pMBA173 (P17-trpR(O1))
Excerpt: as §1

[4] = system: TynA-FeaR sensors (best performing variants); assay: TynA-FeaR sensor activity and specificity in richer media, amines and carboxylic acids; format: cell-based, E. coli; conditions: 1 mM, 24 h; minimal medium with casamino acids and LB medium; FIG. 29
Excerpt: FIG. 29A-FIG. 29B. TynA-FeaR sensor activity and specificity in richer media, related to FIG. 6A-FIG. 6E. […] PtynA was regulated by the specified variants of TynA and FeaR. The response of the G494S TynA mutant sensors was not determined (ND) for DOPAC, PAA, HPAA, or IAA. Values and error bars are the average and standard deviation of biological triplicate, respectively.
To further confirm the specificity of the best performing sensors, the response of each to the four amines and the four respective carboxylic acids, 3,4-dihydroxyphenylacetic acid (DOPAC), phenylacetic acid (PAA), 4-hydroxyphenylacetic acid (HPAA), and indole-3-acetic acid (IAA) was tested in minimal medium with casamino acids and LB medium (see e.g., FIG. 29A-FIG. 29B). […] All mutant sensors remained specific to PEA or Tyra in minimal medium with casamino acids.
(§2) Flow cytometry was performed as previously described. […] Cytometry data was gated by forward and side scatter.

[5] = target: T4, E274Q+D103S TyrR (Escherichia coli, UniProt P07604, D103S/E274Q); assay: cell-based; format: cell-based, E. coli; conditions: ligand alone, listed as Tyr
T4 construct: expressed in transfected cells; host or cells: E. coli Nissle 1917 (EcN), plasmid pAGR159
T4 sequence (P07604 whole entry D103S/E274Q): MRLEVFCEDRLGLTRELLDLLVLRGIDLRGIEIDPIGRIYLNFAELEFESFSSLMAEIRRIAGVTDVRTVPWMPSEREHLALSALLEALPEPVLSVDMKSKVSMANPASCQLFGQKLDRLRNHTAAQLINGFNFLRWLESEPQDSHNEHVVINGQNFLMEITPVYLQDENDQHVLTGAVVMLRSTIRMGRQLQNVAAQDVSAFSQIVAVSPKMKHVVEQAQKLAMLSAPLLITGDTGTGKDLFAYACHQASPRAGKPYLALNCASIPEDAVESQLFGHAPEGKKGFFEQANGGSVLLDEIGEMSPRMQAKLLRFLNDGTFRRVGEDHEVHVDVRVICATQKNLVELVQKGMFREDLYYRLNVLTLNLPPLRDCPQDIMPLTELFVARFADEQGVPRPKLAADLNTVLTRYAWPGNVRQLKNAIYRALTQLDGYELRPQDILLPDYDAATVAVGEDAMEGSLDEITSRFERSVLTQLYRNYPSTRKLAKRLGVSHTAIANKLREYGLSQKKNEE
Procedure: (§3) Everything but (Eb) medium was prepared by supplementing M9 minimal medium with 1 mM MgSO4, […]), 0.4% w/v glucose, and all non-aromatic amino acids (0.8 mM alanine, 5 mM arginine, 0.4 mM asparagine, 0.4 mM aspartate, 0.1 mM cysteine, 0.6 mM glutamate, 0.6 mM glutamine, 0.8 mM glycine, 0.2 mM histidine, 0.4 mM isoleucine, 0.8 mM leucine, 0.4 mM lysine, 0.2 mM methionine, 0.4 mM proline, 10 mM serine, 0.4 mM threonine, and 0.6 mM valine). […] Experimental cultures were prepared by diluting overnight cultures 200× into 0.6 mL fresh Eb medium supplemented with the respective ligands (Phe and Tyr) in 2 mL 96-deep well plates (Eppendorf, Hamburg, Germany). Cultures were grown for 8 h at 37° C. and 250 rpm before sampled for fluorimetry or flow cytometry analysis. All medium was supplemented with the relevant antibiotics for plasmid maintenance ([…]).
(§4) […] culture samples were collected and transferred to 96-well assay microplates (clear, flat bottom black, Greiner Bio-One). The fluorescence and culture absorbance (Abs) were measured using a Tecan microplate reader (Infinite M200 Pro) as previously described. The fluorescence of GFP was measured with an excitation at 483 nm and emission at 530 nm. The Abs of the samples was measured at 600 nm. The measured fluorescence was normalized by dividing by the Abs and subtracting the same ratio obtained from non-fluorescent wild-type cells (Equation 1).
as §2

[6] = target: T5, E274Q+T14V TyrR (Escherichia coli, UniProt P07604, E274Q/T14V); assay: cell-based; format: cell-based, E. coli; conditions: ligand alone, listed as Tyr
T5 construct: expressed in transfected cells; host or cells: E. coli Nissle 1917 (EcN), plasmid pAGR157
T5 sequence (P07604 whole entry T14V/E274Q): as the sequence (P07604 whole entry D103S/E274Q) above, with T14V, S103D counted along it
Procedure: as §3, §4, §2

[7] = target: T6, R10F TyrR (Escherichia coli, UniProt P07604, R10F); assay: cell-based; format: cell-based, E. coli
T6 construct: expressed in transfected cells; host or cells: E. coli Nissle 1917 (EcN), plasmid pAGR473
T6 sequence (P07604 whole entry R10F): as the sequence (P07604 whole entry D103S/E274Q) above, with R10F, S103D, Q274E counted along it
Procedure: as §3, §4, §2

[8] = target: T7, wild-type TyrR (Escherichia coli, UniProt P07604); assay: cell-based; format: cell-based, E. coli
T7 construct: tyrR (WT); expressed in transfected cells; host or cells: E. coli Nissle 1917 (EcN)
T7 sequence (P07604 whole entry): as the sequence (P07604 whole entry D103S/E274Q) above, with S103D, Q274E counted along it
Procedure: as §3, §4, §2

[9] = system: G494S TynA with A81T FeaR; format: cell-based, E. coli MG1655; conditions: G494S*; 24 h; FIG. 4C
Procedure: as §2

[10] = system: wild-type TynA and A81L FeaR; assay: microbe, parasite or virus in culture; format: cell-based, E. coli MG1655; conditions: A81L FeaR; 24 h; FIG. 5C
Procedure: as §2

[11] = system: PtynA; assay: Ligand specificity of 20 FeaR variants at the 81st position with wild-type TynA, fluorescence from PtynA; format: cell-based, E. coli; conditions: 0.25 mM DA, PEA, Tyra, Trypta, 24 h
Excerpt: FIG. 5A-FIG. 5D. Engineering FeaR to identify improved phenylethylamine-specific sensors (A) Computationally predicted ligand-binding region of FeaR. Key residues are shown with (magenta) and without (green) phenylethylamine-aldehyde (PEA-aldehyde; cyan) complexed. The structure was predicted using the Robetta web server. Ligand docking was modeled using the Rosetta Ligand Docking Server hosted by ROSIE. The image was generated using PyMOL. […] PtynA was regulated by wild-type TynA and 20 different FeaR variants with the specified amino acid in the 81st position. Residues for each group are listed from left to right in order of increasing size. Non-zero values and error bars are the average and standard deviation of biological triplicate, respectively. Variants with significant expression in response to PEA were determined by unpaired t tests (p<0.05). (C) Transfer curve of PtynA after 24 h of induction with DA, PEA, Tyra, and Trypta. PtynA was regulated by wild-type TynA and the A81L FeaR mutant. Points represent experimental data while the line represents the fitted curve (see e.g., TABLE 2). […] Values and error bars are the average and standard deviation of biological triplicate, respectively. (D) Reorganization of […] with respect to the size and hydropathy index of the 81st residue (see e.g., TABLE 3). The blue area represents characteristic values that permit binding of Tyra. See also FIG. 20-FIG. 25.
Noting the PEA selectivity given by the A81T mutation and the smallest size of the PEA-aldehyde (no OH group), followed by that of Tyra—(1 OH), DA—(2 OHs), and Trypta—(additional 5-membered ring) aldehyde (see e.g., FIG. 3A), it was hypothesized that small residues, including alanine as in wild-type FeaR, would cause ligand promiscuity, with ligand size-dependent response as shown in FIG. 3D. Slightly larger residues such as threonine would have improved selectivity toward the smallest PEA-aldehyde, but much larger or charged residues may fully eliminate ligand binding. It was also hypothesized that the hydropathy index of the 81st residue may also play a role in the sensor's performance due to differences in ligand polarities caused by the different number of hydroxyl groups. […] To test this prediction, A81 was mutated and each mutant was paired with the promiscuous wild-type TynA (see e.g., FIG. 5B). Consistent with the predictions, A81L, A81P, A81 I, and A81N were identified as PEA-specific variants, with 580-fold induction for the A81L sensor (see e.g., FIG. 5C). […] As predicted a clear pattern between the identity of residue 81 and ligand selectivity was observed (see e.g., FIG. 5D, TABLE 3).
as §2

[12] = pAGR473, FIG. 2G, 8 h, repressible
[13] = wild-type TyrR, pAGR010, FIG. 1C, 8 h

N[C@@H](Cc1c[nH]c2ccc(O)cc12)C(=O)O [5-HTP, 5-hydroxytryptophan] was tested, and the “fold repression of GFP expression” value [1] was 20 fold, the fold repression [2] was “about 7 fold” and the fold repression [3] was “about 15 fold”.

For O=C(O)Cc1ccc(O)c(O)c1 [DOPAC, 3,4-dihydroxyphenylacetic acid], the “response of the sensors” value [4] was “No sensors significantly responded”.

In the case of O=C(O)Cc1ccc(O)cc1 [HPAA, 4-hydroxyphenylacetic acid], the “response of the sensors” value [4] is reported as “No sensors significantly responded”.

O=C(O)Cc1c[nH]c2ccccc12 [IAA, indole-3-acetic acid] was tested, and the “response of the sensors” value [4] was “No sensors significantly responded”.

In the case of O=C(O)Cc1ccccc1 [PAA, phenylacetic acid], the “response of the sensors” value [4] is reported as “No sensors significantly responded”.

With N[C@@H](Cc1ccc(O)cc1)C(=O)O [Tyrosine, tyrosine] the “response of PtyrP” value [5] was “lack of response; also recorded: no apparent response”, the “response of PtyrP” value [6] was “lack of response; also recorded: no apparent response” and the EC50 ([7]; KA (half maximal constant), pAGR473, FIG. 2G, 8 h, repressible) was 50 µM and 47 µM. The “fold repression of PtyrP” value ([7]; independent of the presence of Phe, listed as Tyr) was ~12 fold and 15 fold, the Fmax [7, 12] was 3210 and the Fmin [7, 12] was 279. For the same molecule, the “n (Hill coefficient)” value [7, 12] was 2.3, the “fold repression of PtyrP” value ([8]; overexpression of wild-type TyrR) was 59 fold and the Fmax [8, 13] was 2470. For the same molecule, the Fmin [8, 13] was 38.1, the “n (Hill coefficient)” value [8, 13] was 1.9 and the EC50 ([8]; wild-type TyrR, pAGR010, FIG. 1C, 8 h, read-out: KA (half maximal constant)) was 26 µM. The response [9] was “lack of response” and the response [10] was “lack of response”.

B1: Leucine (L): FeaR variant with leucine in the 81st position, paired with wild-type TynA (protein, UniProt Q47129 1-301, looked up, variant A81L)
Transcriptional activator FeaR: MNPAVDNEFQQWLSQINQVCGNFTGRLLTERYTGVLDTHFAKGLKLSTVTTSGVNLSRTWQEVKGSDDAWFYTVFQLSGQLIMEQDERQVQIGAGDITLLDASRPCSLYWQESSKQISLLLPRTLLEQYFPHQKPICAERLDADLPMVQLSHRLLQESMNNPALSETESEAALQAMVCLLRPVLHQRESVQPRRERQFQKVVTLIDDNIREEILRPEWIAGETGMSVRSLYRMFADKGLVVAQYIRNRRLDFCADAIRHAADDEKLAGIGFHWGFSDQSHFSTVFKQRFGMTPGEYRRKFR
B1 was tested, and the Phenotype [11] was “PEA specific” and the Selectivity [11] was “PEA only”.

B2: Phenylalanine (F): FeaR variant with phenylalanine in the 81st position, paired with wild-type TynA (protein, UniProt Q47129 1-301, looked up, variant A81F)
Transcriptional activator FeaR: B1 Transcriptional activator FeaR with L81F
With B2 the Phenotype [11] was “No activity” and the Selectivity [11] was “No activity”.

B3: Glutamine (Q): FeaR variant with glutamine in the 81st position, paired with wild-type TynA (protein, UniProt Q47129 1-301, looked up, variant A81Q)
Transcriptional activator FeaR: B1 Transcriptional activator FeaR with L81Q
In the case of B3, the Phenotype [11] is reported as “No activity” and the Selectivity [11] is reported as “No activity”.
